Earlier results as cited in patent US20230172916A1, “COMPOSITION COMPRISING AT LEAST ONE PROTOBERBERINE ALKALOID AND METHOD FOR MANUFACTURING SAME” (ELEONOR, priority 2020, published 2023).
Where two headings read alike, the source gives them in different places.

How the values were obtained:
[1] = scientific studies report; species not stated
[2] = laboratory rats subjected to experiments

For `COc1ccc2cc3[n+](cc2c1OC)CCc1cc2c(cc1-3)OCO2` [berberine, 2,3-methylenedioxy-9,10-dimethoxy-protoberberine], the bioavailability [1] is listed as “less than 5%” and the bioavailability [2] is listed as “about 0.68%”.
